Measurements from patent US5238922A, “Inhibitors of farnesyl protein transferase” (Merck & Co., Inc., priority 1991, dated 1993).

Tests used:
[1] = system: Ras farnesylation in the v-ras cell line (viral Ha-ras p21); assay: In vivo ras farnesylation assay (v-ras cell line); assay type: cell-based
Description: The cell line used in this assay was the v-ras line, which expressed viral Ha-ras p21. The assay was performed essentially as described in DeClue, J. E. et. al., Cancer Research 51, 712-717, (1991). Cells in 10 cm dishes at 50-75% confluency were treated with the test compound (final concentration of solvent, methanol or dimethyl sulfoxide, was 0.1%). After 4 hours at 37° C., the cells were labelled in 3 ml methionine-free DMEM supplemented with 10% regular DMEM, 2% fetal bovine serum and 400 μCi[^35 S]methionine (1000 Ci/mmol). After an additional 20 hours, the cells were lysed in 1 ml lysis buffer (1% NP40/20 mM HEPES, pH 7.5/5 mM MgCl2 /1 mM DTT/10 μg/ml aprotinen/2 μg/ml leupeptin/2 μg/ml antipain/0.5 mM PMSF) and the lysates cleared by centrifugation at 100,000×g for 45 min. Aliqouts of lysates containing equal numbers of acid-precipitable counts were bought to 1 ml with IP buffer (lysis buffer lacking DTT) and immunoprecipitated with the ras-specific monoclonal antibody Y13-259 (Furth, M. E. et. al., J. Virol. 43, 294-304, (1982)). Following a 2 hour antibody incubation at 4° C., 200 μl of a 25% suspension of protein A-Sepharose coated with rabbit anti rat IgG was added for 45 min. […]

[2] = biological target: T1, Farnesyl-protein transferase (FTase) from bovine brain (Bos taurus, UniProt P29702+P49355); assay: In vitro inhibition of Ras Farnesyl Transferase; assay type: biochemical; details: partially purified bovine brain FTase; Ras-CVLS 3.5 μM, 0.25 μM [3H]FPP; read-out: IC50 (concentration of compound which gives 50% inhibition of FTase)
T1 construct: incubated with this partially purified enzyme preparation; from tissue; host or cells: bovine brain
Description: Farnesyl-protein transferase (FTase) from bovine brain was chromatographed on DEAE-Sephacel (Pharmacia, 0-0.8M NaCl gradient elution), N-octyl agarose (Sigma, 0-0.6M NaCl gradient elution),, and a mono Q HPLC column (Pharmacia, 0-0.3M NaCl gradient). Ras-CVLS at 3.5 μM, 0.25 μM [^3 H]FPP, and the indicated compounds were incubated with this partially purified enzyme preparation. The FTase data presented below is a measurement of the ability of the test compound to inhibit Ras farnesylation in vitro.

| IC50 [2] | SMILES | Inhibition of Ras Farnesylation in the v-ras cell line ([1]; at 10 μm test concentration) | Inhibition of Ras Farnesylation in the v-ras cell line ([1]; at 100 μm test concentration) |
| --- | --- | --- | --- |
| 2000 nM | CCOC(=O)[C@H](CCSC)NC(=O)[C@H](Cc1ccccc1)NC(=O)[C@@H](NC[C@@H](N)CS)[C@@H](C)CC [N-(2(R)-amino-3-mercaptopropyl)isoleucyl-phenylalanyl-methionine ethyl ester] | 10% | – |
| 7 nM | CSCC[C@H](NC(=O)[C@H](Cc1ccccc1)NC[C@@H](NC(=O)[C@@H](N)CS)C(C)C)C(=O)O [N-(3-methyl-2(S)-(cysteinylamino)but-1-yl)phenylalanyl-methionine] | – | – |
| 4.7 nM | CC[C@H](C)[C@@H](CN[C@@H](Cc1ccccc1)C(=O)N[C@@H](CCSC)C(=O)O)NC[C@@H](N)CS [N-[2(S)-(2(R)-amino-3-mercaptopropylamino)-3(S)-methylpentyl]phenylalanyl-methionine] | – | 30% |
